Results reported in EP0030835A1, “Derivatives of 2-substituted-6-phenyl-3(2H)pyridazinone, their production and pharmaceutical compositions containing them” (MORISHITA PHARMACEUTICAL CO. LTD., priority 1979, dated 1981).

Assays:
[1] = Acute oral toxicity (LD50 p.o.); conditions: rat, in vivo, rats, read-out: Acute oral toxicity (LD50,kgx10^-6/kg)
[2] = test system: gastric secretion; assay: Effects on gastric secretion (pylorus-ligated rats); format: in vivo; conditions: Rattus norvegicus, intraduodenal, 100 mg/kg intraduodenally, pylorus ligature, gastric juice collected after 7 hours, read-out: Rate of inhibition, Gastric secretion (%)
Protocol: One group of 10 rats of body weight of from 1.5x10^-1 to 1.8x10^-1 kg (150 to 180g) was subjected to ligature of the pylorus after 24-hours fasting, under ether-anaesthesia, and one of the compounds of the present invention or the reference compound was administered as a dispersion in an aqueous 1% CMC solution into the duodenum. Only an aqueous 1% CMC solution was administered into the duodenum of a control group of 10 rats. After 7 hours from closing the abdomen, the stomach was extirpated under ether-anaesthesia to collect the gastric juice that had accumulated in it. The inhibiting effect of each drug on gastric secretion was calculated by the following formula: [formula] wherein Amount of gastric juice of control group = A ml Amount of gastric juice of test group = B ml The results are also shown in Table 1.
(§1) Note: ^* The structure of the compounds of the invention is expressed by the formula: [drawing 8] **The structure of the reference compound is expressed by the formula: [drawing 9] **Experiments were carried out on rats and the rate of inhibition was obtained at a dose of 10^-4 kg/kg (100 mg/kg) orally or intraduodenally.

[3] = test system: Shay's ulcer; assay: Shay's ulcer; format: in vivo; conditions: Rattus norvegicus, intraduodenal; rats, 100 mg/kg intraduodenally, pylorus ligature, 18 hours, ulcer area of forestomach; read-out: Rate of inhibition, Shay's ulcer (%)
Protocol: Two groups of rats of body weight of from 2x10^-1 to 2.5x10^-1 kg (200 to 250 g), each group consisting of 10 animals, were treated under ether-anaesthesia by ligature of the pylorus after 48 hour-fasting (during which water was taken ad lib.) and, just after the operation, an aqueous suspension of one of the compounds of the invention in a 1% solution of carboxymethylcellulose (hereinafter referred to as CMC) was administered intraduodenally to the rats in one group at a dose of 10^-4 kg/kg (100 mg/kg). The other group (control) was given an aqueous 1% solution of CMC intraduodenally. After keeping these animals for 18 hours without giving them any food and water, their stomachs were extirpated under ether anaesthesia and the area (m^2x10^-6) (mm ) of the ulcer generated on the forestomach part of the rats was determined under an anatomical microscope. The total area of the ulcers of one group was represented by an ulcer coefficient. The rate of inhibition of the occurrence of ulcers (%) was obtained by calculation according to the following formula: Rate of inhibition of the occurrence of ulcers (%)= 100 x (Ulcer coeff. of control qp) - (Ulcer coeff. of test qp) (ulcer coeff.of control gp)
as §1

[4] = test system: Stress ulcer; assay: Stress ulcer (restriction in water); format: in vivo; conditions: Rattus norvegicus, po; rats, 100 mg/kg orally, immersed in water at 23°C for 20 hours, length of erosion; read-out: Rate of inhibition, Stress ulcer (%)
Protocol: One group of 10 rats of body weight of from 2x10^-1 to 2.5x10^-1kg (200 to 250 g) after oral administration of an aqueous suspension of the compound of the invention being tested in a 1% CMC solution at a dose of 10^-4 kg/kg (100 mg/kg) were kept in stress cages and immersed in water at a temperature of 23°C to the depth of their thorax for 20 hours to give a stress of restriction in water. Another group of 10 rats of the same strain (a control group) were also treated with the same stress, but after administration of an aqueous 1% CMC solution.
Just after removing the rats from the water, they were clubbed to death and their stomachs were extirpated. Then, about 1.5x10^-5m^3 (15 ml) of an aqueous 1% formaldehyde solution was injected into each stomach. After maintaining the formaldehyde solution in the stomachs for 10 minutes to enable the solution to contact to the inner stomach wall, each stomach was cut open along the greater curvature to examine the length of erosion (in 10" m (mm)) generated on the mucosa of the glandular stomach region under an anatomical microscope. The sum of the length of erosion for rats of one group was represented by the ulcer coefficient. The rate of inhibition of the occurrence of the ulcer by each compound was obtained by the same method as in 1-1), the results being shown also in Table 1.
as §1

[5] = test system: Aspirin-induced ulcer; assay: Aspirin-induced ulcer; format: in vivo; conditions: Rattus norvegicus; rats, 100 mg/kg intraduodenally, aspirin 100 mg/kg orally, 7 hours, length of erosion; read-out: Rate of inhibition, Aspirin-ulcer (%)
Protocol: One group of 10 rats of body weight of from 2x10^-1 to 2.5x10^-1 kg (200 to 250 g) was subjected to laparotomy under ether-anaesthesia, after 24 hour-fasting with ad lib. taking water, to have ligature of their pylorus (according to Okabe et al., 1974). Just after the ligature, an aqueous suspension of one of the compounds of the invention in a 1% CMC solution was intraduodenally administered to the rats at a dose of 10^-4 kg/kg (100 mg/kg). After closing the abdomen, an aqueous dispersion of aspirin in a 1% CMC solution was orally administered at a dose of 10^-4 kg/kg (100 mg/kg). After 7 hours of the aspirin administration, the stomach was extirpated under ether-anaesthesia, and the length (in 10^-3m (mm)) of erosions generated on the mucosa of the glandular stomach region was measured. The sum of the length of erosion on rats of one group was represented by the ulcer coefficient. The same procedures were carried out on another group of 10 rats of the same strain (a control group) except that an aqueous 1% CMC solution was administered instead of the aqueous dispersion of one of the compounds of the present invention. The rate of inhibition of the occurrence of ulcers was obtained by calculation as in 1-2), the results being also shown in Table 1.
as §1

Structure (SMILES)	LD50 [1] [mg/kg]	inhibition in vivo at 100 mg/kg [2] [%]	inhibition in vivo at 100 mg/kg [3] [%]	inhibition in vivo at 100 mg/kg [4] [%]	inhibition in vivo at 100 mg/kg [5] [%]
CCN=C(NC#N)NCCCCCn1nc(-c2ccccc2)ccc1=O [Compound No. 53, N-cyano-N'-[5-(3-oxo-6-phenyl-2-pyridazinyl)pentyl]-N"-ethylguanidine]	> 5000	68.5	93.2	79	90.6
CCN=C(NC#N)NCCCn1nc(-c2ccccc2)ccc1=O [Compound No. 48, N-cyano-N'-[3-(3-oxo-6-phenyl-2-pyridazinyl)propyl]-N"-ethylguanidine]	> 5000	51.9	76.4	70.5	93.8
CCN=C(NC#N)NCCCCn1nc(-c2ccccc2)ccc1=O [Compound No. 50, N-cyano-N'-[4-(3-oxo-6-phenyl-2-pyridazinyl)butyl]-N"-ethylguanidine]	> 5000	59.2	73.4	77.2	86.2
CN=C(NC#N)NCCCCn1nc(-c2ccccc2)ccc1=O [Compound No. 44, N-cyano-N'-[4-(3-oxo-6-phenyl-2-pyridazinyl)butyl]-N"-methylguanidine]	> 5000	77.6	97.8	71.2	97.5
CN=C(NC#N)NCCCCn1nc(-c2ccc(Cl)cc2)ccc1=O [Compound No. 59, N-cyano-N'-[4-{6-(4-chlorophenyl)-3-oxo-2-pyridazinyl}butyl]-N"- methylguanidine]	4800	63.1	61.5	72.1	89.5
CN=C(NC#N)NCCSCn1nc(-c2ccccc2)ccc1=O [Compound No. 138, N-cyano-N'-[2-{(3-oxo-6-phenyl-2-pyridazinyl)methylthio}ethyl]-N"-methylguanidine]	4800	70.2	88.3	68.2	90.2
CN=C(NC#N)NCCCCn1nc(-c2ccc(C)cc2)ccc1=O [Compound No. 65, N-cyano-N'-[4-{6-(4-methylphenyl)-3-oxo-2-pyridazinyl}butyl]-N"- methylguanidine]	> 5000	58.5	70.3	70.5	91.4
CN=C(NC#N)NCCCCn1nc(-c2ccccc2)cc(C)c1=O [Compound No. 81, N-cyano-N'-[4-(4-methyl-3-oxo-6-phenyl-2-pyridazinyl)butyl]-N"- methylguanidine]	> 5000	54.2	72.4	63.4	90.8
